Here are results for 7 molecules from US10377729B2, “Bis-furan derivatives as transthyretin (TTR) stabilizers and amyloid inhibitors for the treatment of familial amyloid polyneuropathy (FAP)” (BSIM Therapeutics, S.A., priority 2015, dated 2019).

The test system of data set [1] is TTR in human plasma (versus albumin and thyroxine-binding globulin). In words: Ex vivo thyroxine ([125I]-T4) competition assay in human plasma (native PAGE). Particulars: FIG. 9 A; for displacement of T4 from TTR / binding affinity for TTR (increasing order, in words): heterozygotic TTR V30M carriers and normal subjects, B. On the procedure:
After electrophoresis, the gels are dried, subjected to phosphor imaging (Typhoon 8600; […], Amersham Biosciences), and analysed using the ImageQuant program version 5.1. The intensity of the protein bands is compared. Two or three bands of different intensity should be visualized in plasma samples.
The results are analyzed by calculation of the TTR/total (TTR+ALB+TBG) ratio for each sample.

Data set [2] addresses wild type TTR in human plasma (Homo sapiens (Human), UniProt P02766). In words: Ex vivo TTR stability to dissociation assay (IEF, 4 M urea), plasma of normal subjects. Particulars: wild type TTR plasmas, 5 samples, IEF densitometry. In kind it is biochemical. On the procedure:
(§1) In an embodiment, the AT09-B00 compound was further tested ex vivo for its effect on the stability of human plasma TTR, using isoelectric focusing (IEF) under semi-denaturating conditions, i.e. in the presence of 4 M of urea—as described in this disclosure and in references. After plasma incubation with the test and reference compounds, TTR was isolated by PAGE and run on IEF. Bands corresponding to different TTR species were quantified and the tetramer to total protein ratio was determined. Under the experimental conditions used, TTR presented a typical pattern of two main bands, representing monomers (normal and oxidized forms), and several bands of lower isoelectric point (pI) indicating different forms of TTR tetramers.
(§2) In an embodiment, ex vivo TTR stability assays were conducted. Plasma TTR stability to dissociation is assessed by isoelectric focusing (IEF) in semi-denaturing conditions of human plasma samples as described in references. To perform the assay, 30 μL of human plasma are incubated with 5 μL of a 10 mM solution of test compounds and control compounds overnight at 4° C. followed by a 1 hour incubation at room temperature. The samples are then subjected to native PAGE and the gel band containing TTR is excised and applied to an IEF gel. […] The results are expressed as the average ratio of TTR tetramer for over total TTR over 5 repetitions±the standard deviation.

Data set [3] concerns the target TTR V30M in human plasma (Homo sapiens (Human), UniProt P02766, V30M). In words: Ex vivo TTR stability to dissociation assay (IEF, 4 M urea), plasma of heterozygotic V30M carriers. It counts as biochemical. As to conditions: plasmas of heterozygotic V30M carriers, 5 samples, IEF densitometry. The protocol:
as §1, §2

Data set [4] relates to AD/TTR+/− mice. Particulars: cited from earlier work.
Data set [5] relates to HepG2 cells (human liver carcinoma cell line). Kind of data set: HepG2 cell viability assay (resazurin reduction). In kind it is cell-based. As to conditions: for ID50: HepG2, 72 hours of incubation; for toxicity for HepG2 cells (in words): 72 hours, even at high doses, FIG. 10. On the procedure: In an embodiment, the toxicity profiling in HepG2 cell lines was evaluated. […] Further toxicology is required if AT09 compounds are to be progressed to subsequent stages of development, not only to discard potential liver damage (or toxicity to other organs/tissues) but also given the long-term nature of treatments required by patients suffering from TTR amyloidoses (such as FAP), associated co-morbidities, or other TTR-related pathologies.
In an embodiment, the HepG2 cell viability assay was conducted as follows:
Adherent human hepatoma cells HepG2 were cultured in DMEM (Dulbecco's Modified Eagle's Medium) with 10% fetal bovine serum (FBS), 100 U/mL penicillin, 100 μg/mL streptomycin, and 1 mM sodium pyruvate. The cells were grown in 75 cm^2 culture flasks at 37° C., in an atmosphere of 5% CO2, and subcultured twice a week using a trypsin-EDTA solution.
Upon 3-4 days of growth and reaching approximately 90-95% confluence, HepG2 cells were plated in 96-well microplates with cell density of 12×10^3 cells/well and in a volume of 100 μL per well.
In this assay, the compounds were dissolved in pure DMSO and subsequently diluted in DMEM (in 9 intermediate compound concentrations). After adhesion of HepG2 cells to the microplates, 100 μL of each solution of intermediate compound concentration was added to each well (in quadruplicate). Positive controls with 10 wells containing only cells were tested; solvent controls resulted from the analyses of the three highest DMSO concentrations tested and were carried out in triplicate.
After addition of the compounds to the cells, the microplates were incubated for approximately 72 hours at 37° C. in an atmosphere of 5% CO2 until the cell viability assay was performed.
The viability of HepG2 cells in the presence of test compounds was assessed by the resazurin reduction assay. A stock solution of 0.01% resazurin in PBS is diluted 1:10 in incomplete RPMI 1640 cell medium (without addition of antibiotics and FBS). After washing the cells with 200 μL PBS containing Ca^2+ and Mg^2+, 200 μL of 0.001% resazurin were added to the wells. Blanks with incomplete RPMI 1640 medium alone were done in triplicate. The microplates were incubated at 37° C. and 5% CO2 for approximately 2-4 hours.
To quantify the reduction of resazurin, microplate absorbance readings were taken at two wavelengths, 540 nm (reduced form) and 630 nm (oxidized form), in a microplate spectrophotometer (BioTek Instruments, Inc.). The percentage of viable cells at each compound concentration was determined using the equation % viable cells=[(ε630 nm×Abs540 nm)−(ε540 nm×Abs630 nm)]/[(ε630 nm×Ctrl540 nm)−(ε540 nm×Ctrl630 nm)]
where ε is the molar extinction coefficient, Abs is the absorbance and Ctrl is the absorbance of the positive control (cells without compound).

Data set [6] relates to familial amyloid polyneuropathy (FAP) patients. Particulars: 18-month phase-III clinical trial; cited from earlier work.
The target in data set [7] is recombinant human wild-type TTR (WT-TTR) (Homo sapiens (Human), UniProt P02766). Particulars: for inhibition of amyloid fibril formation by TTR (in words): compounds at 2×, 1× and 0.5× of WT-TTR (3.6 μM), 72 hours, FIG. 5; for IC50: read-out: IC50 ± S.D. (concentration inhibiting TTR amyloid fibril formation by 50%), WT-TTR 3.6 μM, pH 4.4, 72 hours at 37° C., mean of at least 3 determinations; for IEI (inhibition efficiency index): IEI = (pIC50/MW) × 1000; for ILE (inhibition lipophilic efficiency): ILE = pIC50 − cLogP; for pIC50: negative logarithm of IC50 values.
Protocol: In an embodiment, the TTR aggregation assay was conducted. […] In this assay, a solution of the test compound is added to a solution of TTR, so that the final concentration is 3.6 μM in protein (TTR) and 7.2, 3.6 and 1.8 μM in the test compound. At such concentrations, compounds may exert their activity through binding to one or both TTR binding sites. The pH of the resulting solution is then lowered to 4.4 to promote amyloidogenesis. The process of amyloid fibril formation over time is assessed by turbidity measurements at three different wavelengths, using a spectrophotometer endowed with a microplate reader.
In an embodiment, the extent of fibril formation of each mixture was normalized by comparison to a sample with protein (TTR) in absence of test compounds, which, at the end of 72 hours, represents 100% of amyloid fibril formation. In each experiment, each compound concentration was tested in triplicate. For each compound concentration, the arithmetic mean of the triplicate experiments was calculated, as well as the arithmetic mean of the three measured wavelengths.
In an embodiment, the IC50 determination assay was conducted. […] Ten different compound concentrations were used for each IC50 determination, while the protein concentration was kept constant at 3.6 μM (FIG. 6).
In an embodiment, the compound preparation for amyloid fibril formation assay was conducted as follows: compounds were prepared as 10.8 mM stock solutions in pure DMSO. Several dilutions in DMSO of the stock solution were made to provide secondary stock solutions. The concentrations were chosen depending on the efficacy of the compound in inhibiting the formation of TTR amyloid fibrils.
In an embodiment, the amyloid fibril formation assay used in this disclosure was based on the one presented in reference [46] and adapted to run in a 96-well microplate. For this purpose, 1 μL of different compound secondary stock solutions was added to 50 μL of a 7.2 μM WT-TTR solution in 10 mM sodium phosphate buffer, 100 mM KCl and 1 mM EDTA, pH 7.2, previously dialyzed against the same buffer solution. After 30 minutes of incubation at room temperature, the pH of the mixture was lowered to 4.4 with 49 μL of 200 mM acetate buffer, 100 mM KCl and 1 mM EDTA, pH 4.3. […] The mixtures were incubated at 37° C. for 72 hours.
In an embodiment, the turbidity at 405 nm, 450 nm and 490 nm (or 550, 600 and 650 nm when the compound absorbs at the previous wavelengths) was measured over time using a microplate spectrophotometer (BioTek Instruments, Inc. Winooski, Vt., USA) to evaluate the extent of fibril formation. Immediately before the turbidity measurements, the mixtures were gently shaken for 1 minute for homogenization but to avoid damaging the formed amyloid aggregates and fibrils. The final turbidity for each compound concentration tested in triplicate was calculated as an average of the three wavelengths measured. In addition, control samples containing TTR with no inhibitor and 1% DMSO, as well as inhibitor in absence of TTR, were tested and analyzed.
In an embodiment, the extent of amyloid fibril formation was compared to WT-TTR with no inhibitor, assigned to be 100% amyloid fibril formation (or 0% amyloid inhibition) at the end of the experiment.
IC50 values were determined by monitoring the effect of increasing concentrations of the compounds under test on the inhibition values. Ten different compound concentrations were used for each IC50 assay, along with a fixed WT-TTR concentration (3.6 μM).

Data set [8] has as its target WT-TTR (Homo sapiens (Human), UniProt P02766). In words: Isothermal titration calorimetry (ITC) with WT-TTR. Particulars: 25° C., pH 7.2, 2% DMSO, model with two ligand-binding sites. The protocol:
In an embodiment, Isothermal titration calorimetry (ITC) experiments were conducted to determine the binding constants of bis-furan compounds to TTR. […] An initial injection of 4 μL of titrant was followed by 28 regular injections of 10 μL until saturation of the titrated solution was reached. The heat associated with each injection was measured throughout time and calculated by integration of the area under the deflection of the measured peak, after baseline correction (i.e. subtraction of blank). Further details about the ITC experiments are provided herein.
The corresponding dissociation constants were calculated according to the equation given herein.
In an embodiment, the isothermal titration calorimetry (ITC) experiments were performed on a Malvern high precision VP-ITC titration calorimetry system (Malvern Instruments, Worcestershire, UK; previously from MicroCal). Compound stock solutions were prepared in pure DMSO. Both compound and WT-TTR dilutions were prepared in 20 mM sodium phosphate buffer, 150 mM sodium chloride and 2% DMSO, at pH 7.2. All solutions were filtered and degassed prior to use.
In an embodiment, in all titrations, the initial injection of 4 μL of titrant to the calorimetric cell was followed by 28 injections at regular intervals of 10 μL each, until saturation of the titrated solution was reached. […] The extent of binding was determined by direct measurement of the heat exchanged with the environment: the heat associated with each injection is proportional to the complex concentration and can be calculated by integrating the area under the deflection of the measured calorimetric signal. Data were analyzed with the Origin 7.0 software package from Malvern. A baseline correction was applied to each experiment by subtraction of data from injections of ligand solution into a buffer blank correlating to the heat of dilution of the ligand solution. For the calculation of the association constant (Ka), data analysis was performed according to a model of binding to a macromolecule with two ligand-binding sites, by non-linear regression. The reported dissociation constant (Kd) is the reciprocal of Ka, according to the equation ΔG=−RTInKa=RTInKd, where ΔG is the Gibbs free energy of binding, R is the gas constant and T is the temperature.
For orientation: Isothermal titration calorimetry measures the heat released or taken up as one component is titrated into another.

The pIC50 is the negative decadic logarithm of the IC50, by convention in mol/L.

Values joined by “and” are separate entries in the source; they are usually repeats but may differ in a detail not shown here. Identical values can stand only once. “Also recorded” adds a separate entry of the source. Like-named read-outs stand apart in the source and are kept apart here.

On to `O=C(O)c1cc(-c2ccc(F)cc2F)cc(I)c1O` [iododiflunisal, reference compound], for which the “displacement of T4 from TTR / binding affinity for TTR (increasing order, in words)” value in data set [1] is given as “iododiflunisal<tafamidis<AT09-B00”. In addition, the “tetramer to total protein ratio” value in data set [2] amounted to 0.768; in data set [3], 0.445. In addition, in data set [4], the “brain Abeta levels and deposition, cognitive function” value was “decreased brain Aβ levels and deposition; also recorded: decreased brain Abeta levels and deposition”.

Consider `O=C(O)c1ccc2nc(-c3cc(Cl)cc(Cl)c3)oc2c1` [Tafamidis], for which, in data set [1], the “displacement of T4 from TTR / binding affinity for TTR (increasing order, in words)” value was “iododiflunisal<tafamidis<AT09-B00”. Moreover, the ID50 is 76.1 μg/mL and 247 μM in data set [5]; “more than 75 μg/mL” in data set [5] (listed as tafamidis). Moreover, the “FAP patients with improvement of symptoms” value in data set [6] is “approximately 60%”.

Take `Cc1oc(CSCc2cc(C(=O)O)c(C)o2)cc1C(=O)O` [AT09-A00, bis((3-carboxy-2-methyl-furan-5-yl)methyl)sulfane]: in data set [7], the “inhibition of amyloid fibril formation by TTR (in words)” value (shortened to “inhibition of amyloid fibril formation”) is “lower inhibitory activity than tafamidis and thyroxine”; the IC50 was found to be 7100 nM.

Take “(E)-5-(2-(5-chlorofuran-2-yl)vinyl)-1-methylfuran-3-carboxylic acid [AT09-B06]”: the Kd in data set [8] (read-out: Kd1) is 3.9 nM. Further, the Kd in data set [8] (read-out: Kd2) was determined as 278 nM. The “toxicity for HepG2 cells (in words)” value in data set [5] is “relatively low toxicity for HepG2 cells”. Besides, in data set [7], the “IEI (inhibition efficiency index)” value is reported as 22.3, the “ILE (inhibition lipophilic efficiency)” value was found to be 2.99, the “inhibition of amyloid fibril formation” value is on record as “stronger inhibition” and the negative logarithm of the IC50 (pIC50) was 5.60. Moreover, the IC50 in data set [7] was 2490 nM.

As to `CNC[C@H](O)[C@@H](O)[C@H](O)[C@H](O)CO.O=C(O)c1ccc2nc(-c3cc(Cl)cc(Cl)c3)oc2c1` [Tafamidis meglumine, N-methyl D-(2,3,4,5,6-pentahydroxy-hexyl)-ammonium; 2-(3,5-dichloro-phenyl)-benzoxazole-6-carboxylate], the “FAP patients with improvement of symptoms” value in data set [6] is given as “approximately 60%”.

In the case of `Cc1c(C(=O)O)coc1/C=C/c1ccc(Cl)o1` [AT09-B00, (E)-5-(2-(5-chlorofuran-2-yl)vinyl)-4-methylfuran-3-carboxylic acid], the Kd in data set [8] (read-out: Kd1) was determined as 3.5 nM. Further, the Kd in data set [8] (read-out: Kd2) was 357 nM. Besides, the “specificity for TTR versus TBG and albumin (in words)” value in data set [1] (band intensity) was “small difference in band intensity for TBG and albumin”. In addition, the “displacement of T4 from TTR / binding affinity for TTR (increasing order, in words)” value in data set [1] was “iododiflunisal<tafamidis<AT09-B00; also recorded: at least comparable to the current drug”. The “tetramer to total protein ratio” value in data set [2] worked out at 0.961. Further, the “tetramer to total protein ratio” value in data set [3] is recorded as 0.481. In addition, the “toxicity for HepG2 cells (in words)” value in data set [5] is “relatively low toxicity for HepG2 cells”. For the same molecule, in data set [7], the “IEI (inhibition efficiency index)” value came out at 22.6, the “ILE (inhibition lipophilic efficiency)” value worked out at 2.77, the “inhibition of amyloid fibril formation” value is given as “approaching the high levels of activity of 2OH—PCB80” and the pIC50 was found to be 5.69. Also, the IC50 in data set [7] is 2020 nM.

As to `Oc1c(Cl)cc(-c2cc(Cl)c(O)c(Cl)c2)cc1Cl` [Compound 2OH-PCB80, reference compound], the ID50 in data set [5] was 19.4 μg/mL and 60 μM. In data set [7], the “IEI (inhibition efficiency index)” value turned out to be 18.0, the “ILE (inhibition lipophilic efficiency)” value is recorded as 0.37, the pIC50 was determined as 5.80 and the IC50 is 1590 nM.
